Assay results from patent publication US20230301968A1 (ZEPHAPHARM LTD, priority 2020, published 2023).

Assays:
CYP1A2 [1] = assay: Metabolic stability in human liver microsomes with or without CYP1A2 inhibitor furafylline; details: human, microsomes; for microsomal CLint at 1 µM: pH 7.4, CLint
Experimental: The amount of test compound remaining at each time point was analysed by LC-MS/MS. An incubation in the absence of NADPH was also performed to assess non-CYP mediated stability.
In the pre-screen assay, […] 0.1 M phosphate buffer pH 7.4 (final substrate concentration 1 µM) were pre-incubated at 37° C. prior to the addition of NADPH (final concentration 1 mM) to initiate the reaction. A minus cofactor control incubation was included for each compound tested where 0.1 M phosphate buffer pH 7.4 was added instead of NADPH (minus NADPH). […] A minus cofactor control incubation was included for each compound tested where 0.1 M phosphate buffer pH 7.4 was added instead of cofactor (minus NADPH). […] The reactions were stopped by transferring an aliquot of incubate to acetonitrile at the appropriate time points, in a 1:3 ratio. The termination plates were centrifuged at 3,000 rpm for 20 min at 4° C. to precipitate the protein. Following protein precipitation, the sample supernatants were analysed using LC-MS/MS, along with internal standard (1:1 supernatant to internal standard).
From a plot of In peak area ratio (compound peak area/internal standard peak area) against time, the gradient of the line was determined. Subsequently, half-life and intrinsic clearance were calculated using the equations below: […]

CYP2C8 = molecular target: T1, CYP2C8 (Homo sapiens, UniProt P10632); assay: Cytochrome P450 reaction phenotyping, recombinant CYP2C8; assay type: in vitro ADME; details: for t½: 1 µM substrate, recombinant CYP2C8, NADPH
T1 construct: purchased
T1 sequence (P10632 1-490): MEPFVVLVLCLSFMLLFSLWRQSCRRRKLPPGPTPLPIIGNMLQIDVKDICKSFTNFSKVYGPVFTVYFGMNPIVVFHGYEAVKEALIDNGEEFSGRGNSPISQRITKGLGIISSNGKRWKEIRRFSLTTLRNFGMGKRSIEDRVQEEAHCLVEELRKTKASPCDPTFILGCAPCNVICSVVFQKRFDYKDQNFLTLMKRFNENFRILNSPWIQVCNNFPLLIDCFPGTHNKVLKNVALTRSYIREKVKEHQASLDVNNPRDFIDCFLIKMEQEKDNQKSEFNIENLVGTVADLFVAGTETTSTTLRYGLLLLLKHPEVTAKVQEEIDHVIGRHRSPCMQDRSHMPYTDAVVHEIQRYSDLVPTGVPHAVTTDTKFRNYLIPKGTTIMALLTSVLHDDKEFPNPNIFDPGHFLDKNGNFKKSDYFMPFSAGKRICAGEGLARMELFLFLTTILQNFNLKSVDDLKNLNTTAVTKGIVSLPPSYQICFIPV
Experimental: (§1) The amount of test compound remaining at each time point was analysed by LC-MS/MS. Incubations in control recombinant enzymes were also performed to assess non-enzymatic mediated stability.
(§2) Incubations were also performed using control Bactosomes™ (no cytochrome P450 enzymes present) to reveal any non-enzymatic degradation. Control compounds known to be metabolised specifically by each P450 isoform were included. All incubations were performed singularly for each test compound. […] The reactions were stopped by transferring an aliquot of incubate to quench solvent at the appropriate time points, in a 1:3 ratio. The termination plates were centrifuged at 3,000 rpm for 20 min at 4° C. to precipitate the protein. Following protein precipitation, the sample supernatants were analysed using LC-MS/MS, along with internal standard (1:1 supernatant to internal standard).
(§3) Following correction for any loss in the incubations with the control Bactosomes™, from a plot of In peak area ratio (compound peak area/internal standard peak area) against time, the gradient of the line was determined. Subsequently, half-life (t½) was calculated using the equations below: […]

CYP2D6 = molecular target: T2, CYP2D6 (Homo sapiens, UniProt P10635); assay: Cytochrome P450 reaction phenotyping, recombinant CYP2D6; assay type: in vitro ADME
T2 construct: purchased
T2 sequence (P10635 whole entry): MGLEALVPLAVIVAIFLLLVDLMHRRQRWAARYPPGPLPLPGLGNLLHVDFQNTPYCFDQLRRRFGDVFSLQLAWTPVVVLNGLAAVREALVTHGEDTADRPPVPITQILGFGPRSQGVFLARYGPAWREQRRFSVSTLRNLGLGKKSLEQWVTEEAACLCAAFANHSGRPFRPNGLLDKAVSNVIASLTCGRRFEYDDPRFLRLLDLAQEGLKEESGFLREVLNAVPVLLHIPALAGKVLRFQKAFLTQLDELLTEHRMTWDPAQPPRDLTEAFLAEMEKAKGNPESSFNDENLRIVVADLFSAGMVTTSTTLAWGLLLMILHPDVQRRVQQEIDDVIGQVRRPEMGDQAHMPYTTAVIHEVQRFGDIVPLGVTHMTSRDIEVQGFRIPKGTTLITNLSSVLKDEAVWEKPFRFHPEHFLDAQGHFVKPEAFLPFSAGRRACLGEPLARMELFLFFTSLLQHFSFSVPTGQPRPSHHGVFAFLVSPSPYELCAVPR
Experimental: as §1, §2, §3

CYP2C19 = molecular target: T3, CYP2C19 (Homo sapiens, UniProt P33261); assay: Cytochrome P450 reaction phenotyping, recombinant CYP2C19; assay type: in vitro ADME; details: for t½: 1 µM substrate, recombinant CYP2C19, NADPH
T3 construct: purchased
T3 sequence (P33261 whole entry): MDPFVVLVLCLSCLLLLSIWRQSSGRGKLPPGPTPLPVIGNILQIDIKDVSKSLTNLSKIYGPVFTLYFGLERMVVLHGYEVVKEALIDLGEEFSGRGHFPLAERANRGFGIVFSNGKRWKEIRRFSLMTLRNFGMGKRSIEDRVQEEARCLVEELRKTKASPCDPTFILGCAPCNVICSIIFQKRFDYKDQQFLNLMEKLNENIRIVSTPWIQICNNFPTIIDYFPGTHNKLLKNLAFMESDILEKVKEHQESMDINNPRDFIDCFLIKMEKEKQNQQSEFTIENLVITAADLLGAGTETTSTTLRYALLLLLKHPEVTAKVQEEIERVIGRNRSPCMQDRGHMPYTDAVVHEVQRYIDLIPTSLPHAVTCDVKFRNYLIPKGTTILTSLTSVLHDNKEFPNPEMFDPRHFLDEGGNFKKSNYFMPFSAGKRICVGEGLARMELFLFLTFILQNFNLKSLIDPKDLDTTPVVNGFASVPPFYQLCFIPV
Experimental: as §1, §2, §3

CYP1A2 [2] = assay: Stability in human cryopreserved hepatocytes with or without CYP1A2 inhibitors (assays 1 to 3); details: human, hepatocytes; for half-life at 1 µM: t½
Experimental: (§4) In each assay, the amount of test compound remaining at each time point was analysed by LC-MS/MS.
(§5) The final incubation volume was 500 µL. […] A positive control compound, ethoxycoumarin, for CYP1A2 (as CYP1A2 substrate) was included. […] The reactions were stopped by transferring 50 µL of incubate to 100 µL acetonitrile containing internal standard at the appropriate time points (0, 5, 10, 20, 40 and 60 min). The termination plates were centrifuged at 2500 rpm at 4° C. for 30 min to precipitate the protein.
(§6) From a plot of In peak area ratio (compound peak area/internal standard peak area) against time, the gradient of the line was determined. Subsequently, half-life (t½) and intrinsic clearance (CLint) were calculated using the equations below: […]

[3] = as above; details: human, hepatocytes; for half-life at 1 µM: t½
Experimental: as §4, §5, §6

CYP3A4 = molecular target: T4, CYP3A4 (Homo sapiens, UniProt P08684); assay: Cytochrome P450 reaction phenotyping, recombinant CYP3A4; assay type: in vitro ADME
T4 construct: purchased
T4 sequence (P08684 whole entry): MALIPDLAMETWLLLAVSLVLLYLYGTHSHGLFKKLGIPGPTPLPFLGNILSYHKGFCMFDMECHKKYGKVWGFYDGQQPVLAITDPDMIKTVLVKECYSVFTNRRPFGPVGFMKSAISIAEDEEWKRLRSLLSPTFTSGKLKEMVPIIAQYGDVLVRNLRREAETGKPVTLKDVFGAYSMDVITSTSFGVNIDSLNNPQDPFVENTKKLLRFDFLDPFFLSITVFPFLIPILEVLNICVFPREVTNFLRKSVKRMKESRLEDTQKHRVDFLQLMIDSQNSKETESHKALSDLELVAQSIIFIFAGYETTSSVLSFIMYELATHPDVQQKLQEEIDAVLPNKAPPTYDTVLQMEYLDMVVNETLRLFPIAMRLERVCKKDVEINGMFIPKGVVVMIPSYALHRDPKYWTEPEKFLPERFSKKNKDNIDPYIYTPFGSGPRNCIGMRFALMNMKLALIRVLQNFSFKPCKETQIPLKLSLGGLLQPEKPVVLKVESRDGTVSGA
Experimental: as §1, §2, §3

COC(=O)Nc1nc2cc(C(=O)c3ccc(F)cc3)ccc2[nH]1 [Flubendazole, methyl N-[6-(4-fluorobenzoyl)-1H-benzimidazol-2-yl]carbamate]
microsomal CLint at 1 µM (CYP1A2 [1]; 1 µM substrate, plus 3 µM furafylline): 14.6 µL/min/mg
microsomal CLint at 1 µM (CYP1A2 [1]; 1 µM substrate, plus 10 µM furafylline): 3.52 µL/min/mg
microsomal CLint at 1 µM (CYP1A2 [1]; 1 µM substrate, plus 30 µM furafylline): 5.39 µL/min/mg
half-life at 1 µM (CYP1A2 [1]; pH 7.4, half-life, 1 µM flubendazole, 10 µM furafylline): 6.6 h
half-life at 1 µM (CYP1A2 [1]; pH 7.4, t½, 1 µM substrate, plus 3 µM furafylline): 1.58 h
half-life at 1 µM (CYP1A2 [1]; pH 7.4, t½, 1 µM substrate, plus 10 µM furafylline): 6.57 h
half-life at 1 µM (CYP1A2 [1]; pH 7.4, t½, 1 µM substrate, plus 30 µM furafylline): 4.28 h
t½ (CYP2C8): 11.5 h
t½ (CYP2C8; listed as flubendazole): ≥ 2.45 h
Compound Remaining (% of 0 min) (CYP2C8; CYP2C8, 0 min): 100%
Compound Remaining (% of 0 min) (CYP2C8; CYP2C8, 5 min): 100%
Compound Remaining (% of 0 min) (CYP2C8; CYP2C8, 30 min): 99.4%
Compound Remaining (% of 0 min) (CYP2C8; CYP2C8, 45 min): 95.3%
t½ (CYP2D6; 1 µM substrate, recombinant CYP2D6, NADPH): 2.45 h
Compound Remaining (% of 0 min) (CYP2D6; CYP2D6, 0 min): 100%
Compound Remaining (% of 0 min) (CYP2D6; CYP2D6, 5 min): 93.1%
Compound Remaining (% of 0 min) (CYP2D6; CYP2D6, 15 min): 90.0%
Compound Remaining (% of 0 min) (CYP2D6; CYP2D6, 30 min): 85.6%
Compound Remaining (% of 0 min) (CYP2D6; CYP2D6, 45 min): 78.9%
half-life at 1 µM (CYP2D6; human, pH 7.4, 1 µM substrate, recombinant CYP2D6, NADPH, read-out: t½): ≥ 2.45 h
t½ (CYP2C19): 13.6 h
t½ (CYP2C19; listed as flubendazole): ≥ 2.45 h
Compound Remaining (% of 0 min) (CYP2C19; CYP2C19, 0 min): 100%
Compound Remaining (% of 0 min) (CYP2C19; CYP2C19, 5 min): 99.5%
Compound Remaining (% of 0 min) (CYP2C19; CYP2C19, 15 min): 97.7%
Compound Remaining (% of 0 min) (CYP2C19; CYP2C19, 30 min): 98.8%
Compound Remaining (% of 0 min) (CYP2C19; CYP2C19, 45 min): 95.5%
hepatocyte CLint at 1 µM (CYP1A2 [2]; assay 2, fluvoxamine 10 µM): 3.95 ± 0.941 µL/min/1e6 cells
hepatocyte CLint at 1 µM (CYP1A2 [2]; assay 2, furafylline 1 µM): 2.05 ± 2.04 µL/min/1e6 cells
hepatocyte CLint at 1 µM (CYP1A2 [2]; assay 2, furafylline 3 µM): 1.7 ± 0.885 µL/min/1e6 cells
hepatocyte CLint at 1 µM (CYP1A2 [2]; assay 2, thiabendazole 10 µM): 2.96 ± 1.17 µL/min/1e6 cells
hepatocyte CLint at 1 µM (CYP1A2 [2]; assay 3, cimetidine 10 µM): 5.43 ± 1.9 µL/min/1e6 cells
hepatocyte CLint at 1 µM (CYP1A2 [2]; assay 3, cimetidine 100 µM): 10.9 ± 1.27 µL/min/1e6 cells
hepatocyte CLint at 1 µM (CYP1A2 [2]; assay 3, cimetidine 300 µM): 9.19 ± 1.7 µL/min/1e6 cells
hepatocyte CLint at 1 µM (CYP1A2 [2]; assay 3, mexiletine 10 µM): 0.861 ± 0.522 µL/min/1e6 cells
hepatocyte CLint at 1 µM (CYP1A2 [2]; assay 3, mexiletine 300 µM): 5.85 ± 1.25 µL/min/1e6 cells
half-life at 1 µM (CYP1A2 [2]; assay 2, fluvoxamine 10 µM): 5.85 h
half-life at 1 µM (CYP1A2 [2]; assay 2, furafylline 1 µM): 11.3 h
half-life at 1 µM (CYP1A2 [2]; assay 2, furafylline 3 µM): 13.6 h
half-life at 1 µM (CYP1A2 [2]; assay 2, thiabendazole 10 µM): 7.8 h
half-life at 1 µM (CYP1A2 [2]; assay 3, cimetidine 10 µM): 4.25 h
half-life at 1 µM (CYP1A2 [2]; assay 3, cimetidine 100 µM): 2.13 h
half-life at 1 µM (CYP1A2 [2]; assay 3, cimetidine 300 µM): 2.52 h
half-life at 1 µM (CYP1A2 [2]; assay 3, mexiletine 10 µM): 26.8 h
half-life at 1 µM (CYP1A2 [2]; assay 3, mexiletine 300 µM): 3.95 h
hepatocyte CLint at 1 µM ([3]; CLint, assay 2, no inhibitor): 8.62 ± 2.23 µL/min/1e6 cells
hepatocyte CLint at 1 µM ([3]; CLint, assay 3, no inhibitor): 16.7 ± 2.06 µL/min/1e6 cells
hepatocyte CLint at 1 µM ([3]; intrinsic clearance, assay 1 (pre-screening assay), no inhibitor): 15.2 ± 1.09 µL/min/1e6 cells
half-life at 1 µM ([3]; assay 2, no inhibitor): 2.68 h
half-life at 1 µM ([3]; assay 3, no inhibitor): 1.38 h
Compound Remaining (% of 0 min) (CYP3A4; CYP3A4, 0 min): 100%
Compound Remaining (% of 0 min) (CYP3A4; CYP3A4, 5 min): 94.6%
Compound Remaining (% of 0 min) (CYP3A4; CYP3A4, 15 min): 98.2%
Compound Remaining (% of 0 min) (CYP3A4; CYP3A4, 30 min): 100%
Compound Remaining (% of 0 min) (CYP3A4; CYP3A4, 45 min): 97.5%
half-life at 1 µM (CYP3A4; human, pH 7.4, 1 µM substrate, recombinant CYP3A4, NADPH, minus value = not metabolised, read-out: t½): ≥ 2.45 h
